Target: T1, SIRT1 (Homo sapiens, UniProt Q96EB6)
T1 sequence (Q96EB6 1-747): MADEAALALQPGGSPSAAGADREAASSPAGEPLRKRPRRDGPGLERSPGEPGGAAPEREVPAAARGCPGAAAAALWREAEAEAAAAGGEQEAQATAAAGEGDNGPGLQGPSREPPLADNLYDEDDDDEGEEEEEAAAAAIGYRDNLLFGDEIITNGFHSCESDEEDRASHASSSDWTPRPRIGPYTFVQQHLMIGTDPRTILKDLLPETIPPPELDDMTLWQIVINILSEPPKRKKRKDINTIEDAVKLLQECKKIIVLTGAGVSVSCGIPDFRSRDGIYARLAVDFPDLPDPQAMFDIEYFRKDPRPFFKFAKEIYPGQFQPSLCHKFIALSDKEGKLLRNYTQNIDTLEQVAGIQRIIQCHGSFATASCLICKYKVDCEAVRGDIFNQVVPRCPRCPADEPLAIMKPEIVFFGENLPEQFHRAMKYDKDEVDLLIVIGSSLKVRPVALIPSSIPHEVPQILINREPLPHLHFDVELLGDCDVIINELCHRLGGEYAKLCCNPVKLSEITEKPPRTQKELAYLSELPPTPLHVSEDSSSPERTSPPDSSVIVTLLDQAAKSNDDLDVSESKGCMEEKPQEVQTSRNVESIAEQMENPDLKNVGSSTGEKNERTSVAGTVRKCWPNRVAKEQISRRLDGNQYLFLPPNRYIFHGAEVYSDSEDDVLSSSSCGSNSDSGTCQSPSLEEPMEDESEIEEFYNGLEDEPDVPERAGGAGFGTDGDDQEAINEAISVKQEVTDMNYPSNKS
Experiment: Mass spectrometry based assay to identify modulators of SIRT1 activity (deacetylation of p53-based acetylated peptide substrate)
Format: biochemical
Details: for Emax: 25 min, SIRT1 activation, read-out: % FOLD ACT. (percent maximum fold activation)
How it was run: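 Deacetylation of a modified p53 acetyl-lysine peptide ([…], 5TMR-labelled, Nle for Met) by 10 nM N-His SIRT1 with 120 μM βNAD+, pH 8, 25 min, 25 °C. Substrate and product masses measured by MS after formic acid quench; nicotinamide defines maximal inhibition.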

Compound | EC1.5 (concentration giving 1.5-fold activation) [µM] | Emax [%]
Cc1nc(NC(=O)N2CCCOc3ccc(-c4cccc(Cl)c4)nc32)sc1C [Compound 703] | < 1 | > 200
Cc1cnc(NC(=O)N2CCCOc3ccc(-c4cccc(Cl)c4)nc32)s1 [Compound 704] | 1 to 25 | ≤ 200
Cn1ccc(NC(=O)N2CCCOc3ccc(-c4cccc(Cl)c4)nc32)n1 [Compound 705] | 1 to 25 | > 200
Cn1nccc1NC(=O)N1CCCOc2ccc(-c3cccc(Cl)c3)nc21 [Compound 706] | > 25 | ≤ 200
Cn1cc(NC(=O)N2CCCOc3ccc(-c4cccc(Cl)c4)nc32)cn1 [Compound 708] | 1 to 25 | > 200
Cc1csc(NC(=O)N2CCOc3cnc(-c4cccc(C(F)(F)F)c4)nc32)n1 [Compound 709, N-(4-methylthiazol-2-yl)-2-(3-(trifluoromethyl)phenyl)-6H-pyrimido[5,4-b][1,4]oxazine-8(7H)-carboxamide] | > 25 | ≤ 200
Cc1cc(C)nc(NC(=O)N2CCOc3cnc(-c4cccc(C(F)(F)F)c4)nc32)c1 [Compound 712] | > 25 | ≤ 200
O=C(Nc1ccncn1)N1CCOc2cnc(-c3cccc(C(F)(F)F)c3)nc21 [Compound 714] | 1 to 25 | ≤ 200
O=C(Nc1ccncc1)N1CCOc2cnc(-c3cccc(C(F)(F)F)c3)nc21 [Compound 715] | 1 to 25 | ≤ 200
O=C(Nc1ccncc1F)N1CCOc2cnc(-c3cccc(C(F)(F)F)c3)nc21 [Compound 716] | 1 to 25 | > 200
Cc1cc(NC(=O)N2CCOc3c(N4CCCC4)nc(-c4cccc(F)c4)nc32)cc(C)n1 [Compound 718] | 1 to 25 | ≤ 200
O=C1CCN(C(=O)Nc2ccncc2)c2nc(-c3cccc(C(F)(F)F)c3)ccc21 [Compound 719, 4-oxo-N-(pyridin-4-yl)-7-(3-(trifluoromethyl)phenyl)-3,4-dihydro-1,8-naphthyridine-1(2H)-carboxamide] | 1 to 25 | > 200
O=C(Nc1ccncc1)N1CCOc2cnc(-c3cccc(Cl)c3)nc21 [Compound 720] | 1 to 25 | ≤ 200
O=C(Nc1ccncc1)N1CCOc2cnc(-c3cccc(N4CCOCC4)c3)nc21 [Compound 721] | 1 to 25 | > 200
O=C(Nc1ccncc1)N1CCOc2cnc(-c3cccc(N4CCCC4)c3)nc21 [Compound 722] | 1 to 25 | > 200
O=C(Nc1ccncc1)N1CCOc2ncc(-c3cccc(C(F)(F)F)c3)nc21 [Compound 723] | 1 to 25 | ≤ 200
O=C(Nc1ccncc1F)N1CCOc2ncc(-c3cccc(C(F)(F)F)c3)nc21 [Compound 724] | 1 to 25 | > 200
Cc1cncc(NC(=O)N2CCOc3ncc(-c4cccc(C(F)(F)F)c4)nc32)c1 [Compound 725] | 1 to 25 | > 200
Cc1cc(NC(=O)N2CCOc3ncc(-c4cccc(C(F)(F)F)c4)nc32)cc(C)n1 [Compound 726] | < 1 | > 200

Compound | EC1.5 (concentration giving 1.5-fold activation) [µM] | Emax [%]
Cc1cc(NC(=O)N2CCOc3c(N(C)C)nc(-c4cccc(F)c4)nc32)cc(C)n1 [Compound 727] | < 1 | ≤ 200
O=C(Nc1ccncc1)N1CCCCc2ccc(-c3cccc(Cl)c3)nc21 [Compound 728, 2-(3-chlorophenyl)-N-(pyridin-4-yl)-7,8-dihydro-5H-pyrido[2,3-b]azepine-9(6H)-carboxamide] | 1 to 25 | > 200
O=C1CCN(C(=O)Nc2ccccn2)c2nc(-c3cccc(C(F)(F)F)c3)ccc21 [Compound 729] | 1 to 25 | > 200
O=C1CCN(C(=O)Nc2ccc(F)cn2)c2nc(-c3cccc(C(F)(F)F)c3)ccc21 [Compound 730] | 1 to 25 | ≤ 200
O=C(Nc1ccnc(OC[C@H](O)CO)n1)N1CCOc2ccc(-c3cccc(C(F)(F)F)c3)nc21 [Compound 731] | > 25 | ≤ 200
O=C(Nc1ccnc(OC[C@@H](O)CO)n1)N1CCOc2ccc(-c3cccc(C(F)(F)F)c3)nc21 [Compound 732] | > 25 | ≤ 200
Cc1cccc(NC(=O)N2CCCCc3ccc(-c4cccc(Cl)c4)nc32)n1 [Compound 733] | > 25 | ≤ 200
O=C(Nc1ccncc1F)N1CCCCc2ccc(-c3cccc(Cl)c3)nc21 [Compound 734] | 1 to 25 | > 200
O=C(Nc1ccc(F)cn1)N1CCCCc2ccc(-c3cccc(Cl)c3)nc21 [Compound 735] | > 25 | ≤ 200
CN(C)c1nc(-c2cccc(F)c2)nc2c1OCCN2C(=O)Nc1ccncc1 [Compound 736, 4-(dimethylamino)-2-(3-fluorophenyl)-N-(pyridin-4-yl)-6H-pyrimido[5,4-b][1,4]oxazine-8(7H)-carboxamide] | > 25 | ≤ 200
O=C(Nc1ccncc1)N1CCOc2c(N3CCCC3)nc(-c3cccc(F)c3)nc21 [Compound 737] | > 25 | ≤ 200
O=C(Nc1ccncc1)N1CCOc2c(N3CCNCC3)nc(-c3cccc(F)c3)nc21 [Compound 738, 2-(3-fluorophenyl)-4-(piperazin-1-yl)-N-(pyridin-4-yl)-6H-pyrimido[5,4-b][1,4]oxazine-8(7H)-carboxamide] | > 25 | ≤ 200
Cc1cc(NC(=O)N2CCOc3c(N4CCOCC4)nc(-c4cccc(F)c4)nc32)cc(C)n1 [Compound 739] | 1 to 25 | ≤ 200
Cc1csc(NC(=O)N2CCOc3ncc(-c4cccc(C(F)(F)F)c4)nc32)n1 [Compound 740, N-(4-methylthiazol-2-yl)-6-(3-(trifluoromethyl)phenyl)-2H-pyrazino[2,3-b][1,4]oxazine-4(3H)-carboxamide] | > 25 | ≤ 200
Cc1cc(C)nc(NC(=O)N2CCOc3ncc(-c4cccc(C(F)(F)F)c4)nc32)c1 [Compound 741] | 1 to 25 | > 200
O=C(Nc1cccc(OCC(O)CO)n1)N1CCOc2ncc(-c3cccc(C(F)(F)F)c3)nc21 (centres unmarked) [Compound 742] | < 1 | > 200
O=C(Nc1ccncc1)N1CCC(F)(F)c2ccc(-c3cccc(C(F)(F)F)c3)nc21 [Compound 743, 4,4-difluoro-N-(pyridin-4-yl)-7-(3-(trifluoromethyl)phenyl)-3,4-dihydro-1,8-naphthyridine-1(2H)-carboxamide] | 1 to 25 | > 200
Cc1cnccc1NC(=O)N1CCC(F)(F)c2ccc(-c3cccc(C(F)(F)F)c3)nc21 [Compound 744] | > 25 | ≤ 200

Source: patent publication US9556201B2, “Bicyclic pyridines and analogs as sirtuin modulators” (GLAXOSMITHKLINE LLC, priority 2009, dated 2017)
